The values that follow come from patent US6803466B1, “HIV/FIV protease inhibitors having a small P3 residue” (The Scripps Research Institute, priority 1997, dated 2004).

One experiment concerns I84V mutant. Description: Cell culture IC90, I84V mutant. In kind it is cell-based, HIV. Particulars: Human immunodeficiency virus 1, read-out: IC90 against the I84V mutant.
The target in a further experiment is T1, FIV PR (Feline immunodeficiency virus, UniProt P16088, C122K/G43I/N93T).
T1 construct: made in house; host or cells: E. coli BL21(DE3)
Nature of the experiment: Inhibition of FIV PR (Ki, IC50). The experiment is classed as biochemical. As to the method: The solution was mixed and incubated for 10 minutes at 37° C. and the reaction quenched by addition of 8M guanidine HCl solution containing 0.2 M sodium acetate at pH 4.2 (100 μL). The cleavage products and substrate were separated by reverse phase HPLC. Absorbance was measured at 215 nm, peak areas were determined and percent conversion to product was calculated using relative peak areas. […] IC50 was determined as the inhibitor concentration at 50% inhibition. […] ([S]=substrate concentration in nmol). The data used was generated similarly to that for Ki with the following modifications. The substrate concentrations used were 560, 448, 336, 224, 111 and 56 μM, in the absence of inhibitor.
Kinetic determinations for both HIV PR and FIV PRs were performed at 37° C. at pH 5.25 in duplicate using F-2000 fluorescence spectrophotometer (Hitachi).
For FIV PRs, the kinetic data were determined under the similar reaction conditions as for HIV PR.

Experiment [1] concerns FIV-PPR in feline T-cells (104-C1). Nature of the experiment: Ex vivo inhibitor analysis against FIV, pelletable reverse transcriptase in culture supernatant. The experiment is classed as cell-based, feline immunodeficiency virus. The following applies: for FIV replication, pelletable reverse transcriptase: feline T-cells, 1 month. The protocol: For FIV, the assays were performed in FIV-infected feline T-cells which were cultured in the presence of compound 1200 at different concentrations over the course of 1 month. Each data in FIG. 14 represents the amount of pelletable FIV reverse transcriptase in the culture supernatant. […] After one month, the drug-treated cultures were split and replated with and without compound 1200.
The lymphocytic cell line 104-C1 (provided by C. Grant) was used as the target for infection. Cells were cultured in RPMI-1640 media supplemented with 10% FBS, 200 μM L-Glutamine, 1×MEM-Vitamins, 100 μM Sodium Pyruvate, 1×Non-Essential Amino Acids, 5.5×10−5M b-ME, 50 μg/ml Gentamicin, 50 U/ml human recombinant Interleukin-2 (provided by Hoffmann-LaRoche) and 7.5 μg/ml Concanavalin-A. For inhibitor assessment, 5×10^6 cells were infected with FIV-PPR (4×105 RT units) in 1 mL culture for 2 hr at 37° C. […] The cells were then washed with Hanks-buffered saline solution (HBSS) and resuspended in 10 ml of complete medium. The compound 1200 (10 mg/mL in DMSO) was then added to final concentrations of 0.1, 0.5, 1, and 5 μg/ml in duplicate. The cells were then incubated at 37° C. The culture supernatants were monitored for the presence of pelletable reverse transcriptase activity at weekly intervals, as follows. Cell-free culture supernatants (4 ml) were centrifuged at 60K for 30 min and the pellets were resuspended in 100 μl of lysis buffer containing 40 mM TrisHCl (pH 8.1), 360 mM NaCl, 20 mM DTT and 0.2% NP40. Twenty five μl of lysate was added to 25 μl of a mixture containing polyrA-pdT (Pharmacia, Piscataway, N.J.), MgCl2, and 3H-labeled deoxythymidine 5′-triphosphate (DuPont NEN, Boston, Mass.), and incubated for 1 hr at 37° C. The mixture was spotted on DE81 paper, air-dried, fixed in 0.1 M sodium pyrophosphate, washed three times in 0.3 M ammonium formate, and an additional time in 95% ethanol. The paper was then dried and counted on a scintillation counter.
Cells were split 1:5 after the second, third, and fourth time points and fresh inhibitor was added at the appropriate concentration at each of these intervals. The data were expressed as values +/−standard deviation of the mean.

Molecules are shown by their SMILES.

In general, IC90 refers to the concentration at which the effect reaches the 90% level. One may read the Ki as a dissociation constant, usually derived from enzyme kinetics or from competition with a known ligand. Lower therefore signals a stronger hold on the target. In the case of `CC(C)[C@H](NC(=O)[C@H](C)NC(=O)OCc1ccccc1)C(=O)N[C@@H](Cc1ccccc1)[C@@H](O)[C@H](O)[C@H](Cc1ccccc1)NC(=O)[C@@H](NC(=O)[C@H](C)NC(=O)OCc1ccccc1)C(C)C` [Compound 1b], in the experiment on I84V mutant, the IC90 is 400 nM. Further, the affinity on FIV PR, expressed as Ki, was 41 nM. In experiment [1], the “prevention of FIV infection in tissue culture (in words)” value is on record as “strongly inhibits” and the “FIV replication, pelletable reverse transcriptase” value was “markedly inhibit”. Also, the “FIV replication, pelletable reverse transcriptase” value in experiment [1] (1.0 μg/ml (1.1 μM)) is listed as “most effective”. The “virus after drug-treated cultures were split and replated with and without drug” value in experiment [1] (after one month of treatment, two weeks in culture) is “No virus was detected”. For the same compound, in experiment [1] (eight weeks of continuous culture), the “resistance development against the drug” value was “No sign of resistance development”.
